Measurements from ChEMBL document CHEMBL1144301, “Non-peptidic small molecule inhibitors of XIAP” (Bioorg Med Chem Lett, 2005).

Target: E3 ubiquitin-protein ligase XIAP (Homo sapiens, UniProt P98170)
Assay: Dissociation constant against BIR3 domain of X-linked IAP in fluorescence polarization anisotropy competition assay

Sequence of E3 ubiquitin-protein ligase XIAP (P98170 whole entry, the tested form may be a part): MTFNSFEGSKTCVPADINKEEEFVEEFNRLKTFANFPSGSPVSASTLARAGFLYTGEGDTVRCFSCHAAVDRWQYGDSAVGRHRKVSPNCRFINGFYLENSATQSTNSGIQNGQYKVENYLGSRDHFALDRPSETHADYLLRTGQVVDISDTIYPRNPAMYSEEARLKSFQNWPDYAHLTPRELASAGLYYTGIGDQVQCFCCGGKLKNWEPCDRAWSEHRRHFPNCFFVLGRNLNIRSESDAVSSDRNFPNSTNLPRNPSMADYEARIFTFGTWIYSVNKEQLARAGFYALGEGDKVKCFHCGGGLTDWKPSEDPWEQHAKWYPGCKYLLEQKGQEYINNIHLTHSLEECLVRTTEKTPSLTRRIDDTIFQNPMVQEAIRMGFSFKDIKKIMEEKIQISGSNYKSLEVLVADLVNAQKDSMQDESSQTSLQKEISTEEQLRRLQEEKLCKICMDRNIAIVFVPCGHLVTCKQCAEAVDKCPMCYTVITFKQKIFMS

## C[C@H](N)C(=O)Nc1nc(-c2cccc(Cc3ccccc3)c2)c(Cc2ccccc2)s1
  Kd: > 100 µM
